{"source": "patent US10065943B2", "about": "“Pyrrolidine derivatives as angiotensin II type 2 antagonists” (NOVARTIS AG, priority 2015, dated 2018)", "note": "Where a SMILES comes first, the peptide text is derived from it. Side-chain parts run from the residue outwards. The star is where a group is joined. Nicotinoyl = O=C(c1cccnc1)*; Cbz = O=C(OCc1ccccc1)*", "data": [{"biological_target": "T1, human AT2 receptor (Homo sapiens, UniProt P50052)", "T1 construct": "membranes prepared in house", "T1 sequence (P50052 1-363)": "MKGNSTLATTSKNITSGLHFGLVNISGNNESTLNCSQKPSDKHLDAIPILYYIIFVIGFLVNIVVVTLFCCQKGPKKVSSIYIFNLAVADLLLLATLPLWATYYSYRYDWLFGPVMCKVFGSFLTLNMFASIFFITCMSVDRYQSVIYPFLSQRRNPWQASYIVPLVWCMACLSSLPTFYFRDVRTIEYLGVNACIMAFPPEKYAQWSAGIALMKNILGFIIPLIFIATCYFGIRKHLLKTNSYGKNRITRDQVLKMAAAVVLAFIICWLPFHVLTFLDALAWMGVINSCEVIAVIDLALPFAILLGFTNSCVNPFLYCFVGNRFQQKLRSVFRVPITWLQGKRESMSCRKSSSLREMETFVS", "assay": "AT2 receptor binding ([125I]CGP 42112A displacement, CHO-K1 membranes)", "settings": "[125I]CGP 42112A 0.05 nM, membranes of CHO-K1 cells expressing human AT2 receptor; Ki from IC50 by Cheng-Prussoff equation; read-out: Ki", "excerpt": "(§1) Reagents were purchased from Sigma-Aldrich, unless otherwise specified. Dialyzed fetal bovine serum (FBS) was from Life Technologies (cat. no. 10073772). Valiscreen® human angiotensin AT2 receptor cell line (cat. no. ES-070-C), [^125I]CGP 42112A (cat. no. NEX324025UC) and MicroScint™ 40 (cat. no. 6013641) were purchased from PerkinElmer. CGP 42112A (cat. no. 2569) and PD 123,319 ditrifluoroacetate (cat. no. 1361) were from Tocris Biosciences.\n(§2) • 1. Growth medium • EX-CELL® CHO DHFR^− medium • 10% FBS, dialysed • 1 mM sodium pyruvate • 2 mM L-glutamine • 2. Harvesting buffer • PBS • 2 mM EDTA • 3. Suspension buffer • 50 mM Tris-HCl, pH 7.4 • 10 mM EDTA • 4. Resuspension buffer • 50 mM Tris-HCl, pH 7.4 • 0.1 mM EDTA • 0.1% sucrose • 5. Binding assay buffer • 50 mM Tris-HCl, pH 7.4 • 5 mM MgCl2 • 1 mM EDTA • 0.1% gelatin • 6. Wash buffer • 50 mM Tris-HCl, pH 7.4 Procedure for Membrane Preparation • Valiscreen® CHO-K1 cells stably expressing the human AT2 receptor were cultured in growth medium. • Cells were seeded into T-175 flasks and grown to 70-80% confluence. • Medium was removed from confluent flasks and cells were washed with warm PBS. • Cells were harvested by incubating with harvesting buffer for 10 min at 37° C., and then transferred to a centrifuge tube on ice. • Cells were centrifuged at 200 g for 5 min at 4° C. • Cell pellets were homogenised in ice-cold suspension buffer. • Homogenates were centrifuged at 40,000 g for 15 min at 4° C. • Pellets were resuspended in ice-cold resuspension buffer and centrifuged at 40,000 g for 15 min at 4° C. • Final pellets were homogenised in ice-cold resuspension buffer. • Protein concentrations were determined by BCA assay method with BSA as standard. Compound Preparation\n(§3) Compounds were prepared from 10 mM stock solutions in 100% DMSO. Dilutions were made using electronic multichannel pipettes.\n(§4) • Compounds dilutions were prepared in 100% DMSO at 100× final assay concentration. • Compounds were diluted in 100% DMSO to the appropriate maximal concentration. • 30 μL compound was added to row A. • 21.6 μL of 100% DMSO was added to rows B-H. • Transfer 10 μL from row A into row B (half log dilution). • Transfer 10 μL from row B into row C (half log dilution). • Transfer 10 μL from row C into row D (half log dilution). • Transfer 10 μL from row D into row E (half log dilution). • Transfer 10 μL from row E into row F (half log dilution). • Transfer 10 μL from row F into row G (half log dilution). • Transfer 10 μL from row G into row H (half log dilution). Working Plate Preparation (96-Well Plate) • Compounds were diluted 10-fold in assay buffer. • 10 μL compound solution from dose plate was transferred to corresponding well of working plate. • 90 μL assay buffer was added to the wells of working plate. • Working solutions contained 10% DMSO in assay buffer (1% DMSO final assay concentration). Controls • Total binding (high control) was determined in the absence of unlabelled ligand. A solution of 10% DMSO in assay buffer was prepared. • Non-specific binding (low control) was determined in the presence of a vast excess (10 μM) of PD 123,319. 1 mM stock solution of PD 123,319 in water was diluted 10-fold with 10% DMSO in assay buffer. Assay Plate Preparation (96-Well Plate)\n(§5) 15 μL compound solution was transferred to duplicate wells of assay plate. 5 compounds were tested per plate. 15 μL control solutions were transferred to columns 1 and 12 of assay plate.", "units": {"Ki": "nM"}, "values": [{"smiles": "O=C(O)[C@@H]1C[C@H](N2CCc3ccccc32)CN1C(=O)C(c1ccccc1)c1ccccc1", "note": "[Compound 29, (2S,4S)-1-(2,2-Diphenylacetyl)-4-(indolin-1-yl)pyrrolidine-2-carboxylic acid]", "Ki": 225}, {"smiles": "O=C(O)[C@@H]1C[C@H](N2CCCCc3cc(Cl)ccc32)CN1C(=O)C(c1ccccc1)c1ccccc1", "note": "[Compound 6, (2S,4S)-4-(7-Chloro-2,3,4,5-tetrahydro-1H-benzo[b]azepin-1-yl)-1-(2,2-diphenylacetyl)pyrrolidine-2-carboxylic acid]", "Ki": 22.8}, {"smiles": "O=C(O)[C@@H]1C[C@H](N2CCCCc3cccnc32)CN1C(=O)C(c1ccccc1)c1ccccc1", "note": "[Compound 12, (2S,4S)-1-(2,2-Diphenylacetyl)-4-(5,6,7,8-tetrahydro-9H-pyrido[2,3-b]azepin-9-yl)pyrrolidine-2-carboxylic acid]", "Ki": 81}, {"smiles": "Cc1ccc2c(c1)N([C@H]1C[C@@H](C(=O)O)N(C(=O)C(c3ccccc3)c3ccccc3)C1)CCCC2", "note": "[Compound 3, (2S,4S)-1-(2,2-Diphenylacetyl)-4-(8-methyl-2,3,4,5-tetrahydro-1H-benzo[b]azepin-1-yl)pyrrolidine-2-carboxylic acid]", "Ki": 34}, {"smiles": "CN(C)S(=O)(=O)NC(=O)[C@@H]1C[C@H](N2CCCCc3ccccc32)CN1C(=O)C(c1ccccc1)c1ccccc1", "note": "[Compound 44, (2S,4S)—N—(N,N-Dimethylsulfamoyl)-1-(2,2-diphenylacetyl)-4-(2,3,4,5-tetrahydro-1H-benzo[b]azepin-1-yl)pyrrolidine-2-carboxamide]", "Ki": 16.9}, {"smiles": "O=C(O)[C@@H]1C[C@H](N2CCCc3ccccc3C2)CN1C(=O)C(c1ccccc1)c1ccccc1", "note": "[Compound 18, (2S,4S)-1-(2,2-Diphenylacetyl)-4-(1,3,4,5-tetrahydro-2H-benzo[c]azepin-2-yl)pyrrolidine-2-carboxylic acid]", "Ki": 79.7}, {"smiles": "O=C(NS(=O)(=O)C1CC1)[C@@H]1C[C@H](N2CCCOc3cc(F)ccc32)CN1C(=O)C(c1ccccc1)c1ccccc1", "note": "[Compound 38, (2S,4S)—N-(Cyclopropylsulfonyl)-1-(2,2-diphenylacetyl)-4-(8-fluoro-3,4-dihydrobenzo[b][1,4]oxazepin-5(2H)-yl)pyrrolidine-2-carboxamide]", "Ki": 6}, {"smiles": "O=C(O)[C@@H]1C[C@@H](N2CCCOc3ccccc32)CN1C(=O)C(c1ccccc1)c1ccccc1", "note": "[Compound 26, (2S,4R)-4-(3,4-Dihydrobenzo[b][1,4]oxazepin-5(2H)-yl)-1-(2,2-diphenylacetyl)pyrrolidine-2-carboxylic acid]", "Ki": 4.1}, {"smiles": "O=C(O)[C@@H]1C[C@@H](N2CCCOc3cc(F)c(F)cc32)CN1C(=O)C(c1ccccc1)c1ccccc1", "note": "[Compound 24, (2S,4R)-4-(7,8-Difluoro-3,4-dihydrobenzo[b][1,4]oxazepin-5(2H)-yl)-1-(2,2-diphenylacetyl)pyrrolidine-2-carboxylic acid]", "Ki": 1.4}, {"smiles": "O=C(O)[C@@H]1C[C@H](N2CCCOc3cc(F)c(F)cc32)CN1C(=O)C(c1ccccc1)c1ccccc1", "note": "[Compound 21, (2S,4S)-4-(7,8-difluoro-3,4-dihydrobenzo[b][1,4]oxazepin-5(2H)-yl)-1-(2,2-diphenylacetyl)pyrrolidine-2-carboxylic acid]", "Ki": 2.3}, {"smiles": "O=C(C(c1ccccc1)c1ccccc1)N1C[C@@H](N2CCCCc3ccccc32)C[C@H]1c1nn[nH]n1", "note": "[Compound 35, 2,2-Diphenyl-1-((2S,4S)-4-(2,3,4,5-tetrahydro-1H-benzo[b]azepin-1-yl)-2-(2H-tetrazol-5-yl)pyrrolidin-1-yl)ethan-1-one]", "Ki": 36.2}, {"smiles": "O=C(O)[C@@H]1C[C@H](N2CCCCc3ccc(F)cc32)CN1C(=O)C(c1ccccc1)c1ccccc1", "note": "[Compound 2, (2S,4S)-1-(2,2-Diphenylacetyl)-4-(8-fluoro-2,3,4,5-tetrahydro-1H-benzo[b]azepin-1-yl)pyrrolidine-2-carboxylic acid]", "Ki": 4.7}, {"smiles": "CN(C)S(=O)(=O)NC(=O)[C@@H]1C[C@H](N2CCCCc3cc(F)c(F)cc32)CN1C(=O)C(c1ccccc1)c1ccccc1", "note": "[Compound 40, (2S,4S)-4-(7,8-Difluoro-2,3,4,5-tetrahydro-1H-benzo[b]azepin-1-yl)-N—(N,N-dimethylsulfamoyl)-1-(2,2-diphenylacetyl)pyrrolidine-2-carboxamide]", "Ki": 9.3}, {"smiles": "O=C(O)[C@@H]1C[C@H](N2CCc3ccccc3CC2)CN1C(=O)C(c1ccccc1)c1ccccc1", "note": "[Compound 45, (2S,4S)-1-(2,2-Diphenylacetyl)-4-(1,2,4,5-tetrahydro-3H-benzo[d]azepin-3-yl)pyrrolidine-2-carboxylic acid]", "Ki": 28.2}, {"smiles": "O=C(O)[C@@H]1C[C@H](N2CCCOc3ccccc32)CN1C(=O)C(c1ccccc1)c1ccccc1", "note": "[Compound 7, (2S,4S)-4-(3,4-dihydrobenzo[b][1,4]oxazepin-5(2H)-yl)-1-(2,2-diphenylacetyl)pyrrolidine-2-carboxylic acid]", "Ki": 2}, {"smiles": "C[C@@]1(C(=O)O)C[C@H](N2CCCCc3cc(F)c(F)cc32)CN1C(=O)C(c1ccccc1)c1ccccc1", "note": "[Compound 31, (2S,4S)-4-(7,8-Difluoro-2,3,4,5-tetrahydro-1H-benzo[b]azepin-1-yl)-1-(2,2-diphenylacetyl)-2-methylpyrrolidine-2-carboxylic acid]", "Ki": 11.8}, {"smiles": "O=C(NS(=O)(=O)C1CC1)[C@@H]1C[C@H](N2CCCCc3cc(F)c(F)cc32)CN1C(=O)C(c1ccccc1)c1ccccc1", "note": "[Compound 41, (2S,4S)—N-(Cyclopropylsulfonyl)-4-(7,8-difluoro-2,3,4,5-tetrahydro-1H-benzo[b]azepin-1-yl)-1-(2,2-diphenylacetyl)pyrrolidine-2-carboxamide]", "Ki": 15.1}, {"smiles": "O=C(O)[C@@H]1C[C@H](N2CCCCCc3ccccc32)CN1C(=O)C(c1ccccc1)c1ccccc1", "note": "[Compound 13, (2S,4S)-1-(2,2-Diphenylacetyl)-4-(3,4,5,6-tetrahydrobenzo[b]azocin-1(2H)-yl)pyrrolidine-2-carboxylic acid]", "Ki": 8.7}, {"smiles": "O=C(O)[C@@H]1C[C@@H](N2CCCOc3ccc(F)cc32)CN1C(=O)C(c1ccccc1)c1ccccc1", "note": "[Compound 25, (2S,4R)-1-(2,2-Diphenylacetyl)-4-(7-fluoro-3,4-dihydrobenzo[b][1,4]oxazepin-5(2H)-yl)pyrrolidine-2-carboxylic acid]", "Ki": 1.6}, {"smiles": "O=C(O)[C@@H]1C[C@H](N2Cc3ccccc3C2)CN1C(=O)C(c1ccccc1)c1ccccc1", "note": "[Compound 20, (2S,4S)-1-(2,2-Diphenylacetyl)-4-(isoindolin-2-yl)pyrrolidine-2-carboxylic acid]", "Ki": 359}]}, {"biological_target": "T1, human AT2 receptor", "assay": "AT2 receptor binding ([125I]CGP 42112A displacement, CHO-K1 membranes)", "settings": "standard compounds, mean±S.E.M.; read-out: Dissociation constants (pKi) (converted)", "excerpt": "as §1, §2, §3, §4, §5", "units": {"Ki": "nM"}, "values": [{"smiles": "CC[C@H](C)[C@H](NC(=O)[C@@H]1CCCN1C(=O)[C@H](Cc1c[nH]cn1)NC(=O)[C@H](CCCCNC(=O)[C@H](CCCN=C(N)N)NC(=O)OCc1ccccc1)NC(=O)[C@H](Cc1ccc(O)cc1)NC(=O)c1cccnc1)C(=O)O", "note": "[CGP 42112A, reference compound] (Nicotinoyl-YK([Arg-Cbz])HPI-OH)", "Ki": 0.178}]}]}
